Laboratory results: publication PMC11173618, “C2-Symmetrical Terphenyl Derivatives as Small Molecule Inhibitors of Programmed Cell Death 1/Programmed Death Ligand 1 Protein–Protein Interaction” (Molecules, 2024)

Target: T1, PD-1/PD-L1 complex (Homo sapiens, UniProt Q9NZQ7)
T1 construct: purchased cis-bio
Assay: HTRF assay of PD-1/PD-L1 complex inhibition (cis-bio kit)
Assay type: binding
Conditions: for inhibition at 0.5 µM / inhibition at 5 µM: 1 h, scouting mode, 5 nM PD-L1, 50 nM PD-1, read-out: HTRF [%] (percentage of dissociated PD-1/PD-L1 complex); for inhibition at 0.5 µM: inhibitor 0.5 µM; for inhibition at 5 µM: inhibitor 5 µM
Description: All synthesized molecules were tested in the homogeneous time-resolved fluorescence (HTRF) assay to assess their activity as inhibitors of the PD-1/PD-L1 complex (Table 1, Table 2 and Table 3). This evaluation was conducted in scouting modes, employing concentrations of 5 μM and 0.5 μM. Based on the obtained measurements, the IC50 values were estimated for each tested compound.
The certified cis-bio assay kit was used to perform the HTRF assay. Following the standard protocol, the measurement was carried out at a 20 µL final volume with a 5 nM concentration of PD-L1 and a 50 nM concentration of PD-1 in the final formulation. […] The plate was incubated for 1 h and then read on an HTRF-certified Tecan Spark 20M microplate reader. Output data were subjected to background subtraction on negative control (without PD-1) and normalization in correlation to the positive control (without inhibitor) and were then averaged. The resulting data points were then fitted with Hill’s equation to generate IC50 using Mathematica 12. […]

T1 sequence (Q9NZQ7 19-238 limits assumed, one chain of several): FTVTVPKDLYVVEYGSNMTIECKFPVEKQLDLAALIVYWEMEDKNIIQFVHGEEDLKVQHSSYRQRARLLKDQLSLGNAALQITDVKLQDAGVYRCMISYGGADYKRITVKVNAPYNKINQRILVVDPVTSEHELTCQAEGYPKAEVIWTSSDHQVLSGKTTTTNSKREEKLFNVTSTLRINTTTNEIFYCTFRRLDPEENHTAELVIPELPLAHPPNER

Row | SMILES | inhibition at 0.5 µM [%] | inhibition at 5 µM [%] | IC50 Estimated (estimated from scouting data (5 and 0.5 µM) by translation of the Hill fit of 7b, 7j, 7m)
1 | CC(=O)NCCNCc1cccc(OCc2cccc(-c3cc(C)cc(-c4cccc(COc5cccc(CNCCNC(C)=O)c5)c4)c3)c2)c1 [Compound 4a, N,N’-(((((((5′-methyl-[1,1′:3′,1′′-terphenyl]-3,3′′-diyl)bis(methylene))bis(oxy))bis(3,1-phenylene))bis(methylene))bis(azanediyl))bis(ethane-2,1-diyl))diacetamide] | 80.4 ± 18.8 | 56.8 ± 15.4 | –
2 | CC(=O)NCCNCc1cccc(OCc2cccc(-c3cc(C)cc(-c4cccc(COc5cccc(CNCCNC(C)=O)c5Br)c4)c3)c2)c1Br [Compound 4c, N,N’-(((((((5′-methyl-[1,1′:3′,1′′-terphenyl]-3,3′′-diyl)bis(methylene))bis(oxy))bis(2-bromo-3,1-phenylene))bis(methylene))bis(azanediyl))bis(ethane-2,1-diyl))diacetamide] | 88.6 ± 14 | 70.8 ± 18.8 | –
3 | CC(=O)NCCNCc1cccc(OCc2cccc(-c3cc(C)cc(-c4cccc(COc5cccc(CNCCNC(C)=O)c5)c4F)c3)c2F)c1 [Compound 4d, N,N’-(((((((2,2′′-difluoro-5′-methyl-[1,1′:3′,1′′-terphenyl]-3,3′′-diyl)bis(methylene))bis(oxy))bis(3,1-phenylene))bis(methylene))bis(azanediyl))bis(ethane-2,1-diyl))diacetamide] | 89.9 ± 19.8 | 22.5 ± 9.17 | –
4 | CC(=O)NCCNCc1cccc(OCc2cccc(-c3cc(C)cc(-c4cccc(COc5cccc(CNCCNC(C)=O)c5Br)c4C)c3)c2C)c1Br [Compound 4e, N,N’-(((((((2,2′′,5′-trimethyl-[1,1′:3′,1′′-terphenyl]-3,3′′-diyl)bis(methylene))bis(oxy))bis(2-bromo-3,1-phenylene))bis(methylene))bis(azanediyl))bis(ethane-2,1-diyl))diacetamide] | 93.9 ± 5.5 | 94.2 ± 2.3 | not active
5 | CC(=O)NCCNCc1cc(F)c(OCc2cccc(-c3cc(C)cc(-c4cccc(COc5cc(F)c(CNCCNC(C)=O)cc5F)c4C)c3)c2C)cc1F [Compound 4f, N,N’-(((((((2,2′′,5′-trimethyl-[1,1′:3′,1′′-terphenyl]-3,3′′-diyl)bis(methylene))bis(oxy))bis(2,5-difluoro-4,1-phenylene))bis(methylene))bis(azanediyl))bis(ethane-2,1-diyl))diacetamide] | 85.7 ± 10.9 | 28.2 ± 1.5 | –
6 | COc1cccc(CNCCNC(C)=O)c1OCc1ccccc1-c1cc(C)cc(-c2ccccc2COc2c(CNCCNC(C)=O)cccc2OC)c1 [Compound 5a, N,N’-(((((((5′-methyl-[1,1′:3′,1′′-terphenyl]-2,2′′-diyl)bis(methylene))bis(oxy))bis(3-methoxy-2,1-phenylene))bis(methylene))bis(azanediyl))bis(ethane-2,1-diyl))diacetamide] | 84.3 ± 13.1 | 78.4 ± 6.4 | –
7 | COc1cc(-c2cc(C)cc(-c3ccc(COc4c(CNCCNC(C)=O)cccc4OC)c(OC)c3)c2)ccc1COc1c(CNCCNC(C)=O)cccc1OC [Compound 6a, N,N’-(((((((3,3′′-dimethoxy-5′-methyl-[1,1′:3′,1′′-terphenyl]-4,4′′-diyl)bis(methylene))bis(oxy))bis(3-methoxy-2,1-phenylene))bis(methylene))bis(azanediyl))bis(ethane-2,1-diyl))diacetamide] | 86.1 ± 4.5 | 59.2 ± 2.6 | –
8 | COc1cc(-c2cccc(-c3ccc(COc4ccc(CNCCNC(C)=O)cc4OC)c(OC)c3)c2C)ccc1COc1ccc(CNCCNC(C)=O)cc1OC [Compound 7a, N,N’-(((((((3,3′′-dimethoxy-2′-methyl-[1,1′:3′,1′′-terphenyl]-4,4′′-diyl)bis(methylene))bis(oxy))bis(3-methoxy-4,1-phenylene))bis(methylene))bis(azanediyl))bis(ethane-2,1-diyl))diacetamide] | 72.5 ± 8.1 | 23.8 ± 0.3 | –
9 | COc1cc(-c2cccc(-c3ccc(COc4ccc(CNCCO)cc4OC)c(OC)c3)c2C)ccc1COc1ccc(CNCCO)cc1OC [Compound 7b, 2,2′-((((((3,3′′-dimethoxy-2′-methyl-[1,1′:3′,1′′-terphenyl]-4,4′′-diyl)bis(methylene))bis(oxy))bis(3-methoxy-4,1-phenylene))bis(methylene))bis(azanediyl))bis(ethan-1-ol)] | 60.9 ± 3.9 | 11.9 ± 1 | –
10 | COc1cc(CNCCNC(C)=O)ccc1OCc1ccc(-c2cccc(-c3ccc(COc4ccc(CNCCNC(C)=O)cc4OC)cc3C)c2C)c(C)c1 [Compound 7c, N,N’-(((((((2,2′,2′′-trimethyl-[1,1′:3′,1′′-terphenyl]-4,4′′-diyl)bis(methylene))bis(oxy))bis(3-methoxy-4,1-phenylene))bis(methylene))bis(azanediyl))bis(ethane-2,1-diyl))diacetamide] | 82.1 ± 8 | 77.1 ± 0.7 | –
11 | COc1cc(CNCCO)ccc1OCc1ccc(-c2cccc(-c3ccc(COc4ccc(CNCCO)cc4OC)cc3C)c2C)c(C)c1 [Compound 7d, 2,2′-((((((2,2′,2′′-trimethyl-[1,1′:3′,1′′-terphenyl]-4,4′′-diyl)bis(methylene))bis(oxy))bis(3-methoxy-4,1-phenylene))bis(methylene))bis(azanediyl))bis(ethan-1-ol)] | 86.1 ± 12.7 | 35.7 ± 3.3 | –
12 | COc1cc(CNCCNC(C)=O)ccc1OCc1ccc(-c2cccc(-c3ccc(COc4ccc(CNCCNC(C)=O)cc4OC)c(C)c3)c2C)cc1C [Compound 7e, N,N’-(((((((2′,3,3′′-trimethyl-[1,1′:3′,1′′-terphenyl]-4,4′′-diyl)bis(methylene))bis(oxy))bis(3-methoxy-4,1-phenylene))bis(methylene))bis(azanediyl))bis(ethane-2,1-diyl))diacetamide] | 93.8 ± 3.6 | 55.3 ± 13.4 | –
13 | COc1cc(CNCCO)ccc1OCc1ccc(-c2cccc(-c3ccc(COc4ccc(CNCCO)cc4OC)c(C)c3)c2C)cc1C [Compound 7f, 2,2′-((((((2′,3,3′′-trimethyl-[1,1′:3′,1′′-terphenyl]-4,4′′-diyl)bis(methylene))bis(oxy))bis(3-methoxy-4,1-phenylene))bis(methylene))bis(azanediyl))bis(ethan-1-ol)] | 93.1 ± 17.4 | 46.4 ± 9.6 | –
14 | COc1cc(CNC(CO)CO)ccc1OCc1ccc(-c2cccc(-c3ccc(COc4ccc(CNC(CO)CO)cc4OC)c(C)c3)c2C)cc1C [Compound 7g, 2,2′-((((((2′,3,3′′-trimethyl-[1,1′:3′,1′′-terphenyl]-4,4′′-diyl)bis(methylene))bis(oxy))bis(3-methoxy-4,1-phenylene))bis(methylene))bis(azanediyl))bis(propane-1,3-diol)] | 94.5 ± 18.1 | 53.7 ± 1.7 | –
15 | CC(=O)NCCNCc1cc(F)c(OCc2ccc(-c3cccc(-c4ccc(COc5cc(F)c(CNCCNC(C)=O)cc5F)c(C)c4)c3C)cc2C)cc1F [Compound 7h, N,N’-(((((((2′,3,3′′-trimethyl-[1,1′:3′,1′′-terphenyl]-4,4′′-diyl)bis(methylene))bis(oxy))bis(2,5-difluoro-4,1-phenylene))bis(methylene))bis(azanediyl))bis(ethane-2,1-diyl))diacetamide] | 84.1 ± 26.4 | 69 ± 0.9 | –
16 | Cc1cc(-c2cccc(-c3ccc(COc4cc(F)c(CNCCO)cc4F)c(C)c3)c2C)ccc1COc1cc(F)c(CNCCO)cc1F [Compound 7i, 2,2′-((((((2′,3,3′′-trimethyl-[1,1′:3′,1′′-terphenyl]-4,4′′-diyl)bis(methylene))bis(oxy))bis(2,5-difluoro-4,1-phenylene))bis(methylene))bis(azanediyl))bis(ethan-1-ol)] | 78.5 ± 7.3 | 42.2 ± 7.2 | –
17 | CC(=O)NCCNCc1cccc(OCc2ccc(-c3cccc(-c4ccc(COc5cccc(CNCCNC(C)=O)c5Br)cc4)c3C)cc2)c1Br [Compound 7j, N,N’-(((((((2′-methyl-[1,1′:3′,1′′-terphenyl]-4,4′′-diyl)bis(methylene))bis(oxy))bis(2-bromo-3,1-phenylene))bis(methylene))bis(azanediyl))bis(ethane-2,1-diyl))diacetamide] | 40.4 ± 1.5 | 11.1 ± 0.3 | –
18 | Cc1c(-c2cccc(COc3cccc(CNCCO)c3Br)c2)cccc1-c1cccc(COc2cccc(CNCCO)c2Br)c1 [Compound 8a, 2,2′-((((((2′-methyl-[1,1′:3′,1′′-terphenyl]-3,3′′-diyl)bis(methylene))bis(oxy))bis(2-bromo-3,1-phenylene))bis(methylene))bis(azanediyl))bis(ethan-1-ol)] | 94.6 ± 0.1 | 23 ± 0.1 | –
19 | COc1cccc(CNCCO)c1OCc1cccc(-c2cccc(-c3cccc(COc4c(CNCCO)cccc4OC)c3)c2C)c1 [Compound 8c, 2,2′-((((((2′-methyl-[1,1′:3′,1′′-terphenyl]-3,3′′-diyl)bis(methylene))bis(oxy))bis(3-methoxy-2,1-phenylene))bis(methylene))bis(azanediyl))bis(ethan-1-ol)] | 104 ± 3.3 | 61.1 ± 4.5 | –
